# How the values were obtained:
# mice = assay: Toxicity after intravenous administration to mice, two-week observation; assay type: in vivo; details: for Survived?: mice, intravenous, alive at end of two-week period
# Procedure: Physiological salts of the various ligand/metal cation complexes described herein were administered intravenously to mice. […] The mice were considered to have "survived" administration of each agent if they were alive at the end of the two-week period.
# [1] = In vivo distribution of radioisotopically labeled analogs (radioassay of tissues); set-up: species or system mice; details: radioisotope analog; for concentration of agent in brain: within the first hour
# Procedure: (§1) The resulting complexes were subjected to radiochromatography to insure acceptable radiopurity and identity with the parent complexes. They were then administered intravenously to mice in order to measure in vivo distribution and whole body clearance. The location of the test species in the mice's bodies and the rate at which the test species were cleared from the mice's bodies after administration were determined by radioassay of tissues and whole body counting, both performed by conventional gamma ray counting techniques. Concentration of activity in tissues was determined as activity per gram of tissue, and whole body counts were expressed as the percentage of whole body activity at a given time with respect to whole body activity immediately after injection. The results were as follows: • 1. Radioisotopes of Test Species A and B. In vivo distribution. […] By measurements taken one hour after administration, the ratio of the concentration of the test species in bone to that in whole blood was generally over 25:1, while the ratio of their concentration in kidney to that in blood was generally over 10:1. Even after 24 hours, when less than 5% of the administered dose remained in the body (see below), a high ratio of concentration of the test species in bone and kidney to that in blood was maintained. […] Whole Body Clearance. […] Radioisotope of Test species C. In vivo distribution. One hour after administration, the measured bone-to-blood concentration ratio was greater than 4.5:1, and the measured kidney-to-blood ratio was greater than 5.5:1. […] Whole Body Clearance. Within 24 hours of administration, over 95% of the tent species had been cleared from the body. • 3. Radioisotope of Test Species D. In vivo distribution. One hour after administration, the measured bone-to-blood concentration ratio was greater than 6:1, and the measured kidney-to-blood ratio was greater than 10:1. […] Whole Body Clearance.
# Water solubility = assay type: physicochemical; details: read-out: soluble in water at concentrations
# [2] = Whole body clearance of radioisotopically labeled analogs (whole body counting); assay type: in vivo; details: mice, intravenous, radioisotope analog
# Procedure: Radioisotopically labeled analogs of test species selected from those listed above were synthesized, using radioisotopes of Fe(III) (iron-59), Cr(III) (chromium-51) and Gd(III) (gadolinium-153), and employing the general synthesis procedures described above. The resulting complexes were subjected to radiochromatography to insure acceptable radiopurity and identity with the parent complexes. They were then administered intravenously to mice in order to measure in vivo distribution and whole body clearance.
# as §1, with “The” for “The resulting complexes were subjected to radiochromatography to insure acceptable radiopurity and identity with the parent complexes. They were then administered intravenously to mice in order to measure in vivo distribution and whole body clearance. The”
# [3] = Stability: TLC before and after heating; assay type: physicochemical; details: heating at 100°C for two hours
# Procedure: TLC was performed on test species A and D, both before and after heating at 100°C for two hours.
# [4] = Proton longitudinal relaxivity (1/τ1) measurements; assay type: physicochemical; details: 20 MHz, 0.1 M phosphate buffer at pH 7.2
# Procedure: Measurements of proton longitudinal relaxivity (1/τ1) were performed on some of the test species listed above, and compared with those obtained using the following complexes outside the scope of this invention: (i) Gd(III) with diethylenetriamine pentaacetic acid (DTPA), and (ii) Fe(III) with N,N'-ethylenebis[(2-hydroxyphenyl)-glycinate] (EHPG). All measurements were obtained using a Bruckner PC/20 Minispec device operating at 20 MHz. All samples were dissolved in 0.1 M phosphate buffer at pH 7.2.
# [5] = Relative equilibrium constant measurements (competition with EHPG for Fe(III)); assay type: physicochemical; details: 0.25M phosphate buffer at pH 7.2, heated overnight at 100°C, TLC and colour
# Procedure: The highly colored Fe(III) complex of EHPG (used for comparison in part E of this example) was dissolved in 0.25 M phosphate buffer at pH 7.2, and an equimolar quantity of N,N',N''-tris(dihydroxyphosphorylmethyl)-1,4,7-triazacyclononane was added. The solution was heated overnight at 100°C.
# The reverse experiment was also performed. The Fe(III) complex of N,N',N''-tris(dihydroxyphosphorylmethyl)-1,4,7-triazacyclononane was thus dissolved in 0.25M phosphate buffer at pH 7.2, and an equimolar quantity of EHPG was added. The solution was heated overnight at 100°C.
# [6] = within 24 hours of administration
compound,measurement,setting,value
"O=P(O)(O)CN1CCN(CP(=O)(O)O)CCN(CP(=O)(O)O)CC1 [Test Species A, N,N',N''-tris(dihydroxyphosphorylmethyl)-1,4,7-triazacyclononane]",Survived?,"mice; Dose 11.8mM/kg, Rate 0.4mM/sec/kg",yes
same,"toxicity observed, versus the single, chromatographically distinct product","mice; preparations made by alternate complexation procedures, containing multiple forms of the complex by TLC",substantially greater
same,accumulation of activity in fractured tibia versus contralateral normal tibia,[1]; mice with a tibia broken two to four weeks prior to the study,significantly greater accumulation of activity
same,ratio of concentration in bone and kidney to that in blood,"[1]; mice, intravenous, after 24 hours",high ratio
same,activity in the brain,"[1]; mice, intravenous, at all times following administration",very low activity
same,concentration of radioactivity in bone and kidneys,"[1]; mice, intravenous, within 2 minutes following administration",evidence of concentration of radioactivity in bone and kidneys
same,solubility,Water solubility,> 500 mg/mL
same,administered dose remained in the body,[2]; after 24 hours,less than 5%
same,cleared from the body,[2]; [6],over 95%
same,route of whole body clearance,[2]; [6],almost exclusively through the urine
same,TLC before and after heating,[3],"A single, chromatographically distinct spot which did not vary as a result of the heating"
same,proton longitudinal relaxivity relative to the Fe(III) complex of EHPG (times greater),[4],two to three
"O=P(O)(O)CN1CCN(CP(=O)(O)O)CCN(CP(=O)(O)O)CC1 [Test Species E, N,N',N''-tris(dihydroxyphosphorylmethyl)-1,4,7-triazacyclononane]",Survived?,"mice; Dose 2.9mM/kg, Rate 1.1mM/min/kg",yes
"O=P(O)(O)CN1CCN(CP(=O)(O)O)CCN(CP(=O)(O)O)CC1 [N,N',N''-tris(dihydroxyphosphorylmethyl)-1,4,7-triazacyclononane]",species present after equimolar ligand was added to Fe(III) complex of EHPG,[5],"TLC showed only the presence of the Fe(III) N,N',N''-tris(dihydroxyphosphorylmethyl)-1,4,7-triazacyclononane complex"
"O=P(O)(O)CCN1CCN(CCP(=O)(O)O)CCN(CCP(=O)(O)O)CC1 [Test Species C, N,N',N''-tris(dihydroxyphosphorylethyl)-1,4,7-triazacyclononane]",Survived?,"mice; Dose 10.0mM/kg, Rate 2.0mM/min/kg",yes
same,concentration of agent in brain,"[1]; mice, intravenous",very low concentration
same,cleared from the body,[2]; [6],over 95%
"Fe(III) complex of N,N',N''-tris(dihydroxyphosphorylmethyl)-1,4,7-triazacyclononane",species present after equimolar EHPG was added to the Fe(III) complex (reverse experiment),[5],"TLC showed only the presence of the Fe(III) N,N',N''-tris(dihydroxyphosphorylmethyl)-1,4,7-triazacyclononane complex"
"O=P(O)(O)CN1CCN(CP(=O)(O)O)CCN(CP(=O)(O)O)CC1 [Test Species B, N,N',N''-tris(dihydroxyphosphorylmethyl)-1,4,7-triazacyclononane]",Survived?,"mice; Dose 9.8mM/kg, Rate 0.7mM/min/kg",yes
"O=P(O)(O)CN1CCN(CP(=O)(O)O)CCN(CP(=O)(O)O)CC1 [Test Species D, N,N',N''-tris(dihydroxyphosphorylmethyl)-1,4,7-triazacyclononane]",Survived?,"mice; Dose 2.9mM/kg, Rate 0.5mM/sec/kg",yes
same,concentration of agent in brain,"[1]; mice, intravenous",very low concentration
"O=P(O)(O)CN1CCN(CP(=O)(O)O)CCN(CP(=O)(O)O)CC1 [Test Species F, N,N',N''-tris(dihydroxyphosphorylmethyl)-1,4,7-triazacyclononane]",Survived?,"mice; Dose 8.0mM/kg, Rate 2.6mM/min/kg",yes
"O=P(O)(O)CN1CCN(CP(=O)(O)O)CCN(CP(=O)(O)O)CC1 [Test Species G, N,N',N''-tris(dihydroxyphosphorylmethyl)-1,4,7-triazacyclononane]",Survived?,"mice; Dose 3.1mM/kg, Rate 0.8mM/min/kg",yes
